These results are taken from ChEMBL document CHEMBL5537157, “Selective Antitumor Effect and Lower Toxicity of Mitochondrion-Targeting Derivatization of Triptolide” (J Med Chem, 2024).

pIC50: −log10 of the molar value. Active and inactive are the calls of the source. The rule behind the calls is not given here.

Data set [1] relates to NCI-H1975. As to the kind of experiment: Induction of ROS generation in human NCI-H1975 cells incubated for 24 hrs by DCFH-DA probe based analysis. In kind it is functional, cell-based. As to conditions: dose 0.05-0.4 µM.
Data set [2] can be described thus: Toxicity in zebrafish embryo assessed as liver development at 1 uM with replacement of new growth solution daily by fluorescence microscopy (reference value: 100.00 +/- 8.64 %). In kind it is tissue-based, Danio rerio. The note with it: in vivo.
A short description of data set [3]: Renal toxicity in zebrafish assessed as increase in Kim1 expression at 2 uM treated for 48 hrs by RT-qPCR analysis. Also noted: species or system Danio rerio. As to conditions: in vivo.
The test system of data set [4] is A549. As to the kind of experiment: Cytotoxicity against human A549 cells assessed as inhibition of cell viability incubated for 48 hrs by MTT assay. In kind it is functional, cell-based. As to conditions: A549, 48 h. In general terms: Formazan colour is commonly taken as a measure of viable cells.
A short description of data set [5]: Developmental toxicity in zebrafish AB zygotes assessed as decrease in hatching rate at 2 to 4 uM treated at 6 hrs post-fertilization measured at 24 to 72 hrs post-fertilization. The note with it: in vivo, dose lower 2 µM, time lower 18 hrs, dose upper 4 µM, time upper 66 hrs. Also on record: species or system Danio rerio.
In data set [6] the test system is NCI-H1975. As to the kind of experiment: Inhibition of cell proliferation in human NCI-H1975 cells xenografted in zebrafish at 1 to 2 uM measured after 48 hrs by confocal microscopy. In kind it is functional, cell-based. The note with it: dose 1-2 µM. On the technique in general: A xenograft is tissue or cells of one species grown in another, often human tumour cells in immunodeficient mice.

The species entered for a further data set is Danio rerio. As to the kind of experiment: Induction of ROS production in zebrafish at 2 uM measured after 48 hrs by fluorescence microscopy. In kind it is functional, organism-based.
The subject of data set [7] is BEAS-2B. Briefly: Inhibition of mitochondrial membrane potential in human BEAS-2B cells at 200 nM incubated for 24 hrs by JC-1 staining based flow cytometry. The note with it: 0.2 µM. In kind it is toxicity, cell-based.
The nature of data set [8]: Renal toxicity in zebrafish assessed as increase in TNF-alpha expression at 2 uM treated for 48 hrs by RT-qPCR analysis. The note with it: in vivo. Also noted: species or system Danio rerio. (In general: Real-time PCR tracks product formation cycle by cycle.)
Data set [9] is described as follows: Toxicity in zebrafish embryo assessed as degree of periocular edema at 4 uM pretreated with compound followed by replacement of growth liquid by microscopy (reference value: 0.00 %). Also noted: species or system Danio rerio. The note with it: in vivo, 24 h.
Data set [10] can be described thus: Teratogenic toxicity in zebrafish AB zygotes at 2 to 4 uM treated at 6 hrs post-fertilization measured at 24 to 72 hrs post-fertilization. As to conditions: in vivo, dose lower 2 µM, time lower 18 hrs, dose upper 4 µM, time upper 66 hrs. Also noted: species or system Danio rerio.
Data set [11] can be described thus: Toxicity in zebrafish embryo assessed as damage effect in liver development at 2 uM with replacement of new growth solution daily by fluorescence microscopy relative to control. In kind it is tissue-based, Danio rerio. The note with it: in vivo.
Data set [12] can be described thus: Toxicity in zebrafish embryo assessed as damage effect in liver function at 1 uM with replacement of new growth solution daily by fluorescence microscopy relative to control. Also noted: species or system Danio rerio. The note with it: in vivo.
Data set [13] in a line: Renal toxicity in fluorescent transgenic zebrafish at 0.5 to 1 uM treated for 48 hrs by fluorescence microscopy. Also noted: species or system Danio rerio. The note with it: in vivo, dose 0.5-1 µM.
A short description of data set [14]: Toxicity in zebrafish embryo assessed as damage effect in liver function at 2 uM with replacement of new growth solution daily by fluorescence microscopy relative to control. Also noted: species or system Danio rerio. As to conditions: in vivo.
Data set [15] in a line: Toxicity in zebrafish embryo assessed as damage effect in liver development at 1 uM with replacement of new growth solution daily by fluorescence microscopy relative to control. In kind it is tissue-based, Danio rerio. As to conditions: in vivo.
Data set [16] concerns NCI-H1975. Briefly: Induction of early apoptosis in human NCI-H1975 cells at 50 to 400 nM incubated for 24 hrs by Annexin V-FITC/PI staining based flow cytometry. In kind it is functional, cell-based. As to conditions: dose 50-400 nM.
Data set [17] concerns NCI-H1975. Briefly: Cytotoxicity against human NCI-H1975 cells assessed as inhibition of cell viability incubated for 48 hrs by MTT assay. In kind it is functional, cell-based. The note with it: NCI-H1975, 48 h.
In data set [18] the test system is NCI-H1975. Briefly: Inhibition of cell proliferation in human NCI-H1975 cells xenografted in zebrafish at 1 uM measured after 48 hrs by confocal microscopy. In kind it is functional, cell-based.
Data set [19] is described as follows: Developmental toxicity in zebrafish AB zygotes assessed as decrease in hatching rate at 1 to 4 uM treated at 6 hrs post-fertilization measured at 24 to 72 hrs post-fertilization. Also on record: species or system Danio rerio. The note with it: in vivo, dose lower 1 µM, time lower 18 hrs, dose upper 4 µM, time upper 66 hrs.
The next data set concerns PC-3. Briefly: Cytotoxicity against human PC-3 cells assessed as cell growth inhibition at 4.5 to 10 nM incubated for 48 hrs by MTT assay relative to control. As to conditions: dose 4.5-10 nM. In kind it is functional.
Another data set deals with HepG2. Briefly: Cytotoxicity against human HepG2 cells assessed as cell growth inhibition at 4.5 to 10 nM incubated for 48 hrs by MTT assay relative to control. In kind it is functional. As to conditions: dose 4.5-10 nM.
The nature of data set [20]: Cytotoxicity against human HUVEC cells assessed as cell growth inhibition at 4.5 to 10 nM incubated for 48 hrs by MTT assay relative to control. In kind it is toxicity, cell-based. As to conditions: dose 4.5-10 nM, read-out: Imax.
Data set [21] concerns NCI-H1975. Briefly: Cytotoxicity against human NCI-H1975 cells assessed as cell growth inhibition incubated for 48 hrs by MTT assay. In kind it is functional, cell-based.
Data set [22] deals with BEAS-2B. As to the kind of experiment: Cytotoxicity against human BEAS-2B cells assessed as cell growth inhibition incubated for 48 hrs by MTT assay. In kind it is toxicity, cell-based.
Data set [23] relates to NCI-H460. Briefly: Cytotoxicity against human NCI-H460 cells assessed as cell growth inhibition incubated for 48 hrs by MTT assay. In kind it is functional, cell-based.
Data set [24] has as its system MCF7. As to the kind of experiment: Cytotoxicity against human MCF7 cells assessed as cell growth inhibition incubated for 48 hrs by MTT assay. In kind it is functional, cell-based.
Data set [25] is described as follows: Renal toxicity in zebrafish assessed as decrease in nephrin expression at 2 uM treated for 48 hrs by RT-qPCR analysis. Also on record: species or system Danio rerio. As to conditions: in vivo.
A short description of data set [26]: Cytotoxicity against human BEAS-2B cells assessed as cell growth inhibition at 4.5 to 10 nM incubated for 48 hrs by MTT assay relative to control. In kind it is toxicity, cell-based. The note with it: dose 4.5-10 nM, read-out: Imax.
Data set [27] can be described thus: Teratogenic toxicity in zebrafish AB zygotes at 0.5 to 2 uM treated at 6 hrs post-fertilization measured at 24 to 72 hrs post-fertilization. Also on record: species or system Danio rerio. As to conditions: in vivo, dose lower 0.5 µM, time lower 18 hrs, dose upper 2 µM, time upper 66 hrs.
Data set [28] has as its system A549. Briefly: Cytotoxicity against human A549 cells assessed as cell growth inhibition incubated for 48 hrs by MTT assay. In kind it is functional, cell-based.
Data set [29] in a line: Toxicity in zebrafish xenografted with human NCI-H1975 cells assessed as animal death at 2 uM. Also noted: species or system Danio rerio.
The test system of data set [30] is NCI-H1975. Briefly: Cytotoxicity against human NCI-H1975 cells assessed as cell growth inhibition at 123 nM by MTT assay. In kind it is functional, cell-based. As to conditions: time 24-70 hrs, TDE = time-dependent effect.
The subject of data set [31] is MCF7. Briefly: Cytotoxicity against human MCF7 cells assessed as cell growth inhibition at 4.5 to 10 nM incubated for 48 hrs by MTT assay relative to control. The note with it: dose 4.5-10 nM. In kind it is functional.
Data set [32] can be described thus: Renal toxicity in zebrafish assessed as increase in TNF-alpha expression at 0.5 to 2 uM treated for 48 hrs by RT-qPCR analysis. Also noted: species or system Danio rerio. As to conditions: in vivo, dose 0.5-2 µM.
For data set [33], the system named is NCI-H460. As to the kind of experiment: Cytotoxicity against human NCI-H460 cells assessed as cell growth inhibition at 4.5 to 10 nM incubated for 48 hrs by MTT assay relative to control. In kind it is functional. The note with it: dose 4.5-10 nM.
The subject of data set [34] is NCI-H1975. As to the kind of experiment: Induction of apoptosis in human NCI-H1975 cells at 50 to 1600 nM incubated for 24 hrs by Annexin V-FITC/PI staining based flow cytometry. As to conditions: dose 50-1600 nM. In kind it is functional, cell-based.
The nature of data set [35]: Developmental toxicity in zebrafish AB zygotes assessed as lethal effect at 2 to 4 uM treated at 6 hrs post-fertilization measured at 72 hrs post-fertilization. Also noted: species or system Danio rerio. As to conditions: in vivo, 66 h, dose 2-4 µM.
Data set [36] in a line: Renal toxicity in zebrafish assessed as yolk sac absorption at 2 uM treated at 3 hrs post-fertilization measured at 48 hrs post-compound treatment by FITC staining based microscopy. Also noted: species or system Danio rerio. The note with it: in vivo.

By pIC50 is commonly meant the IC50 on a negative log10 scale, so that one unit is a factor of ten. With `CC(C)[C@]12O[C@H]1[C@@H]1O[C@]13[C@]1(O[C@H]1C[C@H]1C4=C(CC[C@@]13C)C(=O)OC4)[C@@H]2OC(=O)CCCCCCCC[n+]1ccc(/C=C/c2c[nH]c3ccccc23)cc1.[Br-]`, the Activity result in the data set on NCI-H1975 [1] was “Dose-Dependent Effect”; in data set [2], 76.24%; in data set [3], “Toxic”; in data set [5], “Toxic”; with BEAS-2B [7] it was “Non-Toxic”; in [8], “Toxic”. Also, the Activity in [9] is on record as 100%; in [10], “Toxic”; in data set [11], 58.21%; in [12], 72.82%; in [13] it was “Non-Toxic”; in data set [14], 79.96%. Moreover, the Activity in data set [15] amounted to 23.76%. For the same molecule, the values for the pIC50 with A549 [4] and with NCI-H1975 [17] were 4.34 and 6.68, respectively. Also, the inhibition result in the data set on NCI-H1975 [6] was “Active”. Moreover, the outcome in the data set filed under Danio rerio and in the data set with NCI-H1975 [16] was Active.

Regarding `CC(C)[C@]12O[C@H]1[C@@H]1O[C@@]13[C@@]1(C)CCC4=C(COC4=O)[C@@H]1C[C@@H]1O[C@@]13C2=O` [TRIPTONIDE], the inhibition result in the data set with NCI-H1975 [18] is “Active”. In addition, the Activity result in data set [19], in data set [25], in [27], in data set [29], in data set [32] and in data set [35] was “Toxic” in each case. In data set [36], the Activity entry is listed as “Toxic”. Moreover, the Imax with PC-3 is approximately 60%; with MCF7 [31] it was approximately 40%; in the data set on NCI-H460 [33], approximately 40%. In addition, the results for the “inhibition (INH)” value with HepG2 and in the data set on BEAS-2B [22] were 80% and “Dose-Dependent Effect”, respectively. Besides, the Emax at 48 h is approximately 60% in data set [20] and approximately 40% in data set [26]. Further, the inhibition entry in the data set with NCI-H1975 [21] was “Dose-Dependent Effect”; in the data set on NCI-H460 [23], “Dose-Dependent Effect”; in the data set on MCF7 [24], “Dose-Dependent Effect”; in the data set with A549 [28] it was “Dose-Dependent Effect”; in the data set on NCI-H1975 [30], “Tde”. For the same molecule, the outcome with NCI-H1975 [34] was Active.
